Assay results published in patent US7476689B2, “Therapeutic compositions for intranasal administration which include KETOROLAC” (Recordati Ireland Limited, priority 1991, dated 2009).

Key:
[1] = test system: patients; conditions: cited from earlier work
[2] = nasal absorption: KTM plasma levels by HPLC after intranasal or intravenous administration; assay type: in vivo, White New Zealand rabbits; conditions: rabbit
Description: Each rabbit received a active preparation in one nostril and its placebo in the other. Each animal received 2 mg/kg of KETOROLAC® tromethamine (KTM), twice a day for seven days and once on the eighth day. The control rabbits were treated, after seven days of nasal administration of physiologic solution, with 2 mg/kg of KTM by intravenous route once. After the last treatment plasma samples were collected at several times and KTM plasma levels were investigated by HPLC. After the last blood sample was drawn all the animals were killed by excision of femoral arteries, after having been completely anaesthetized. Nasal turbinates, larynx and pharynx were removed and subjected to histological examinations.

concentration at 0.083 h ([2]; New Zealand White, plasma, intravenous 2 mg/kg once, 0.083 hours) [ng/mL] | concentration at 0.25 h ([2]; New Zealand White, plasma, intravenous 2 mg/kg once, 0.25 hours) [ng/mL] | concentration at 0.5 h ([2]; New Zealand White, plasma, intravenous 2 mg/kg once, 0.5 hours) [ng/mL] | concentration at 1 h ([2]; New Zealand White, plasma, intravenous 2 mg/kg once, 1 hour) [ng/mL] | concentration at 2 h ([2]; New Zealand White, plasma, intravenous 2 mg/kg once, 2 hours) [ng/mL] | concentration at 3 h ([2]; New Zealand White, plasma, intravenous 2 mg/kg once, 3 hours) [ng/mL] | concentration at 5 h ([2]; New Zealand White, plasma, intravenous 2 mg/kg once, 5 hours) [ng/mL] | AUC(0-t) ([2]; New Zealand White, plasma, intravenous 2 mg/kg, mean of three animals, read-out: AUC0-5, average) [ng·h/mL] | Plasma Concentration of KTM, Mean ([2]; intravenous 2 mg/kg once, sampling time Basal) [ng/mL] | Structure (SMILES) | patients with one or more undesirable side effects ([1]; intramuscular route, 20 doses of 30 mg each over five days) | patients with gastrointestinal disorders ([1]; oral administration) | incidence of side effects ([1]; oral route for a few days)
 |  |  |  |  |  |  |  |  | O=C(c1ccccc1)c1ccc2n1CCC2C(=O)O (stereo not drawn) [KETOROLAC®, 5-benzoyl-2,3-dihydro-1H-pyrrolizine-1-carboxylic acid] | about 10% | up to 50% | around 32%
14500 | 7680 | 3880 | 1700 | 403 | 120 | 20 | 7360 | 0 | O=C(c1ccccc1)c1ccc2n1CCC2C(=O)O (stereo not drawn) [KTM, KETOROLAC® tromethamine] |  |  | 
